Results taken from patent publication US11267814B2, “Compounds for bone growth” (OsteoQC Inc., priority 2013, dated 2022).

Columns and labels:
[1] = system: MC3T3-E1 (mouse calvarial) osteoblast cells; assay: Rescue of sclerostin inhibition of mineralization (total calcium); type: cell-based; details: calcium concentration; for IC100: Mus musculus, MC3T3-E1, read-out: Sclerostin Inhibition of Mineralization, improvement over sclerostin alone.
Method: Mineralization (crystalline calcium phosphate formation) represents an in vitro model of bone formation. […] Following the protocol described in Li et al., Compounds were assayed for their ability to rescue the inhibition of mineralization by sclerostin in MC3T3 osteoblast cells.

MC3T3 osteoblast cells = assay: Osteocalcin (OCN) secretion, bone formation marker, ELISA; type: cell-based, mouse; details: for IC100: Mus musculus
Method: Bone formation can also be assayed in vitro or in vivo using a serum marker for bone formation, osteocalcin (OCN), available from Biomedical Tecnhnologies, Inc. (Stoughton, Mass.). Following the manufacturer's protocol for the mouse osteocalcin EIA kit (described at the website www.btiinc.com/page/cata2.html#mouse_osteocalcin), bone formation in MC3T3 osteoblast cells was assayed by measuring the concentration of OCN.

sclerostin = target: T1, sclerostin (Homo sapiens, UniProt Q9BQB4); assay: Modulation of sclerostin/Wnt activity (sclerostin inhibition assay): restoring Wnt3a signaling in the presence of sclerostin; type: cell-based; details: for Sclerostin Inhibition Assay; improvement over sclerostin alone.: IC100 class, Wnt3a signaling in human embryonic cells in presence of sclerostin
T1 construct: host or cells: human embryonic cells (reporter cells)
T1 sequence (Q9BQB4 24-213): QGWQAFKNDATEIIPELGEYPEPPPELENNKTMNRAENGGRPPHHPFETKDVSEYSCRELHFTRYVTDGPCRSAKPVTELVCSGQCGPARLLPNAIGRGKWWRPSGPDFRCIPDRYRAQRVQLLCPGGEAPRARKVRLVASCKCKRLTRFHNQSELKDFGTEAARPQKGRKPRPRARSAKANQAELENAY

[2] = IC100 class, MC3T3 osteoblast cells treated with sclerostin
[3] = IC100 class, OCN secreted from MC3T3 osteoblast cells treated with sclerostin
[4] = MC3T3 osteoblast cells, result in words

For `CC(Cn1c2ccccc2c2ccccc21)N(C)C` (stereo not drawn) [Example 2, 1-(9H-carbazol-9-yl)-N,N-dimethylpropan-2-amine], the IC100 [1, 2] was > 10 µM, the IC100 (MC3T3 osteoblast cells; [3]) was > 10 µM and the “Sclerostin Inhibition Assay; improvement over sclerostin alone.” value (sclerostin) was “+ (+ indicates an IC100 > 10 μM)”.
`COc1ccc2c3ccnc(C)c3n(C(C)CN(C)C)c2c1` (stereo not drawn) [Example 5, 2-(7-methoxy-1-methyl-9H-pyrido[3,4-b]indol-9-yl)-N,N-dimethylpropan-1-amine] was tested, and the IC100 [1, 2] was < 10 µM, the IC100 (MC3T3 osteoblast cells; [3]) was < 10 µM and the “Sclerostin Inhibition Assay; improvement over sclerostin alone.” value (sclerostin) was “++ (++ indicates an IC100 < 10 μM)”.
For `CCN(CC)CCCn1c2cc(OC)ccc2c2ccnc(C)c21` [Example 6, N,N-diethyl-3-(7-methoxy-1-methyl-9H-pyrido[3,4-b]indol-9-yl)propan-1-amine], the IC100 [1, 2] was < 10 µM, the IC100 (MC3T3 osteoblast cells; [3]) was < 10 µM and the “Sclerostin Inhibition Assay; improvement over sclerostin alone.” value (sclerostin) was “++ (++ indicates an IC100 < 10 μM)”.
With `COc1ccc2c3ccnc(C)c3n(CCN(C)C)c2c1` [Example 7, 2-(7-methoxy-1-methyl-9H-pyrido[3,4-b]indol-9-yl)-N,N-dimethyl ethanamine] the IC100 [1, 2] was < 10 µM, the IC100 (MC3T3 osteoblast cells; [3]) was < 10 µM and the “Sclerostin Inhibition Assay; improvement over sclerostin alone.” value (sclerostin) was “++ (++ indicates an IC100 < 10 μM)”.
`COc1ccc2c3ccnc(C)c3n(CCN3CCN(C(=O)OC(C)(C)C)CC3)c2c1` [Example 14, t-butyl 4-(2-(7-methoxy-1-methyl-9H-pyrido[3,4-b]indol-9-yl)ethyl) piperazine-1-carboxylate] was tested, and the IC100 [1, 2] was < 10 µM, the IC100 (MC3T3 osteoblast cells; [3]) was < 10 µM and the “Sclerostin Inhibition Assay; improvement over sclerostin alone.” value (sclerostin) was “++ (++ indicates an IC100 < 10 μM)”.
In the case of `COc1ccc2c3ccnc(C)c3n(CCN3CCNCC3)c2c1` [Example 16, 7-methoxy-1-methyl-9-(2-(piperazin-1-yl)ethyl)-9H-pyrido[3,4-b]indole], the IC100 [1, 2] is reported as < 10 µM, the IC100 (MC3T3 osteoblast cells; [3]) is reported as < 10 µM and the “Sclerostin Inhibition Assay; improvement over sclerostin alone.” value (sclerostin) is reported as “++ (++ indicates an IC100 < 10 μM)”.
For `COc1ccc2c(c1)[nH]c1c(C)nc(O)cc12` [Example 19, 7-methoxy-1-methyl-9H-pyrido[3,4-b]indol-3-ol], the IC100 [1, 2] was < 10 µM, the IC100 (MC3T3 osteoblast cells; [3]) was < 10 µM and the “Sclerostin Inhibition Assay; improvement over sclerostin alone.” value (sclerostin) was “++ (++ indicates an IC100 < 10 μM)”.
In the case of `Cc1nc(O)cc2c1[nH]c1cc(O)ccc12` [Example 20, 1-methyl-9H-pyrido[3,4-b]indole-3,7-diol], the IC100 [1, 2] is reported as > 10 µM, the IC100 (MC3T3 osteoblast cells; [3]) is reported as > 10 µM and the “Sclerostin Inhibition Assay; improvement over sclerostin alone.” value (sclerostin) is reported as “+ (+ indicates an IC100 > 10 μM)”.
In the case of `Oc1ccc2c(c1)[nH]c1c(C(F)(F)F)nccc12` [Example 23, 1-(trifluoromethyl)-9H-pyrido[3,4-b]indol-7-ol], the IC100 [1, 2] is reported as < 10 µM, the IC100 (MC3T3 osteoblast cells; [3]) is reported as < 10 µM and the “Sclerostin Inhibition Assay; improvement over sclerostin alone.” value (sclerostin) is reported as “++ (++ indicates an IC100 < 10 μM)”.
In the case of `COc1ccc2c3ccnc(C(F)(F)F)c3n(CCN3CCN(C(=O)OC(C)(C)C)CC3)c2c1` [Example 24, t-butyl 4-(2-(7-methoxy-1-(trifluoromethyl)-9H-pyrido[3,4-b]indol-9-yl)ethyl)piperazine-1-carboxylate], the IC100 [1, 2] is reported as < 10 µM, the IC100 (MC3T3 osteoblast cells; [3]) is reported as < 10 µM and the “Sclerostin Inhibition Assay; improvement over sclerostin alone.” value (sclerostin) is reported as “++ (++ indicates an IC100 < 10 μM)”.
In the case of `Oc1ccc2c3ccnc(C(F)(F)F)c3n(CCN3CCOCC3)c2c1` [Example 26, 9-(2-morpholinoethyl)-1-(trifluoromethyl)-9H-pyrido[3,4-b]indol-7-ol], the IC100 [1, 2] is reported as < 10 µM, the IC100 (MC3T3 osteoblast cells; [3]) is reported as < 10 µM and the “Sclerostin Inhibition Assay; improvement over sclerostin alone.” value (sclerostin) is reported as “++ (++ indicates an IC100 < 10 μM)”.
With `COc1ccc2c3ccnc(C(F)(F)F)c3n(CC(C)N3CCOCC3)c2c1` (stereo not drawn) [Example 28, 4-(1-(7-methoxy-1-(trifluoromethyl)-9H-pyrido[3,4-b]indol-9-yl)propan-2-yl)morpholine] the IC100 [1, 2] was < 10 µM, the IC100 (MC3T3 osteoblast cells; [3]) was < 10 µM and the “Sclerostin Inhibition Assay; improvement over sclerostin alone.” value (sclerostin) was “++ (++ indicates an IC100 < 10 μM)”.
`COc1ccc2c3ccnc(C(F)(F)F)c3n(CCN3CCOCC3C)c2c1` (stereo not drawn) [Example 29, 4-(2-(7-methoxy-1-(trifluoromethyl)-9H-pyrido[3,4-b]indol-9-yl)ethyl)-3-methylmorpholine] was tested, and the IC100 [1, 2] was < 10 µM, the IC100 (MC3T3 osteoblast cells; [3]) was < 10 µM and the “Sclerostin Inhibition Assay; improvement over sclerostin alone.” value (sclerostin) was “++ (++ indicates an IC100 < 10 μM)”.
In the case of `CC1COCCN1CCn1c2cc(O)ccc2c2ccnc(C(F)(F)F)c21` (stereo not drawn) [Example 30, 9-(2-(3-methylmorpholino)ethyl)-1-(trifluoromethyl)-9H-pyrido[3,4-b] indol-7-ol], the IC100 [1, 2] is reported as < 10 µM, the IC100 (MC3T3 osteoblast cells; [3]) is reported as < 10 µM and the “Sclerostin Inhibition Assay; improvement over sclerostin alone.” value (sclerostin) is reported as “++ (++ indicates an IC100 < 10 μM)”.
`CC1CN(CCn2c3cc(O)ccc3c3ccnc(C(F)(F)F)c32)CC(C)O1` (stereo not drawn) [Example 31, 9-(2-(2,6-dimethylmorpholino)ethyl)-1-(trifluoromethyl)-9H-pyrido[3,4-b]indol-7-ol] was tested, and the IC100 [1, 2] was < 10 µM, the IC100 (MC3T3 osteoblast cells; [3]) was < 10 µM and the “Sclerostin Inhibition Assay; improvement over sclerostin alone.” value (sclerostin) was “++ (++ indicates an IC100 < 10 μM)”.
With `COc1ccc2c3ccnc(C(F)(F)F)c3n(CCN3CCCCC3)c2c1` [Example 33, 7-methoxy-9-(2-(piperidin-1-yl)ethyl)-1-(trifluoromethyl)-9H-pyrido[3,4-b]indole] the IC100 [1, 2] was < 10 µM, the IC100 (MC3T3 osteoblast cells; [3]) was < 10 µM and the “Sclerostin Inhibition Assay; improvement over sclerostin alone.” value (sclerostin) was “++ (++ indicates an IC100 < 10 μM)”.
With `COc1ccc2c3ccnc(C(F)(F)F)c3n(CCNCCO)c2c1` [Example 34, 2-((2-(7-methoxy-1-(trifluoromethyl)-9H-pyrido[3,4-b]indol-9-yl)ethyl)amino)ethanol] the IC100 [1, 2] was < 10 µM, the IC100 (MC3T3 osteoblast cells; [3]) was < 10 µM and the “Sclerostin Inhibition Assay; improvement over sclerostin alone.” value (sclerostin) was “++ (++ indicates an IC100 < 10 μM)”.
For `OCCN(CCO)CCn1c2cc(O)ccc2c2ccnc(C(F)(F)F)c21` [Example 36, 2,2′-((2-(7-hydroxy-1-(trifluoromethyl)-9H-pyrido[3,4-b]indol-9-yl)ethyl)azanediyl)diethanol], the IC100 [1, 2] was > 10 µM, the IC100 (MC3T3 osteoblast cells; [3]) was > 10 µM and the “Sclerostin Inhibition Assay; improvement over sclerostin alone.” value (sclerostin) was “+ (+ indicates an IC100 > 10 μM)”.
`COc1ccc2c(c1)[nH]c1c(C)nc(F)cc12` [Example 38, 3-fluoro-7-methoxy-1-methyl-9H-pyrido[3,4-b]indole] was tested, and the IC100 [1, 2] was < 10 µM, the IC100 (MC3T3 osteoblast cells; [3]) was < 10 µM and the “Sclerostin Inhibition Assay; improvement over sclerostin alone.” value (sclerostin) was “++ (++ indicates an IC100 < 10 μM)”.
For `COc1ccc2c3cc(F)nc(C)c3n(CCN3CCCCC3)c2c1` [Example 39, 3-fluoro-7-methoxy-1-methyl-9-(2-(piperidin-1-yl)ethyl)-9H-pyrido[3,4-b]indole], the IC100 [1, 2] was < 10 µM, the IC100 (MC3T3 osteoblast cells; [3]) was < 10 µM and the “Sclerostin Inhibition Assay; improvement over sclerostin alone.” value (sclerostin) was “++ (++ indicates an IC100 < 10 μM)”.
With `COc1ccc2c(c1)[nH]c1c(C)cncc12` [Example 41, 7-methoxy-4-methyl-5H-pyrido[4,3-b]indole] the IC100 [1, 2] was > 10 µM, the IC100 (MC3T3 osteoblast cells; [3]) was > 10 µM and the “Sclerostin Inhibition Assay; improvement over sclerostin alone.” value (sclerostin) was “+ (+ indicates an IC100 > 10 μM)”.
In the case of `Cc1nccc2c1[nH]c1cc(OC3CC3)ccc12` [Example 42, 7-cyclopropoxy-1-methyl-9H-pyrido[3,4-b]indole], the IC100 [1, 2] is reported as > 10 µM, the IC100 (MC3T3 osteoblast cells; [3]) is reported as > 10 µM and the “Sclerostin Inhibition Assay; improvement over sclerostin alone.” value (sclerostin) is reported as “+ (+ indicates an IC100 > 10 μM)”.
With `Cc1nccc2c1[nH]c1cc(OC(C)(F)F)ccc12` [Example 43, 7-(1,1-difluoroethoxy)-1-methyl-9H-pyrido[3,4-b]indole] the IC100 [1, 2] was < 10 µM, the IC100 (MC3T3 osteoblast cells; [3]) was < 10 µM and the “Sclerostin Inhibition Assay; improvement over sclerostin alone.” value (sclerostin) was “++ (++ indicates an IC100 < 10 μM)”.
In the case of `Cc1nccc2c1[nH]c1cc(Cl)ccc12` [Example 44, 7-chloro-1-methyl-9H-pyrido[3,4-b]indole], the IC100 [1, 2] is reported as < 10 µM, the IC100 (MC3T3 osteoblast cells; [3]) is reported as < 10 µM and the “Sclerostin Inhibition Assay; improvement over sclerostin alone.” value (sclerostin) is reported as “++ (++ indicates an IC100 < 10 μM)”.
`Cc1nccc2c1[nH]c1cc(OC(F)F)ccc12` [Example 45, 7-(difluoromethoxy)-1-methyl-9H-pyrido[3,4-b]indole] was tested, and the IC100 [1, 2] was < 10 µM, the IC100 (MC3T3 osteoblast cells; [3]) was < 10 µM and the “Sclerostin Inhibition Assay; improvement over sclerostin alone.” value (sclerostin) was “++ (++ indicates an IC100 < 10 μM)”.
With `Cc1nccc2c1[nH]c1cc(OCC3CC3)ccc12` [Example 46, 7-(cyclopropylmethoxy)-1-methyl-9H-pyrido[3,4-b]indole] the IC100 [1, 2] was < 10 µM, the IC100 (MC3T3 osteoblast cells; [3]) was < 10 µM and the “Sclerostin Inhibition Assay; improvement over sclerostin alone.” value (sclerostin) was “++ (++ indicates an IC100 < 10 μM)”.
“sclerostin protein: SOST (Sclerostin) protein; antagonizes Wnt3a signaling and inhibits mineralization and OCN secretion in the assays” was tested, and the “Sclerostin Inhibition of Mineralization; improvement over sclerostin alone.” value [1, 2] was “−”, the effect on mineralization [1, 4] was “significant decrease in mineralization” and the “OSTEOCALCIN (Bone Formation Marker)” value (MC3T3 osteoblast cells; [3]) was “−”. For the same compound, the “effect on OCN secretion” value (MC3T3 osteoblast cells; [4]) was “nearly complete loss of OCN secretion”, the “Sclerostin Inhibition Assay; improvement over sclerostin alone.” value (sclerostin) was “−” and the “effect on Wnt3a signaling” value (sclerostin; human embryonic cells, result in words) was “antagonized Wnt3a signaling”.
